Measurements as given in patent US20260130395A1, “Water Dispersible Botanical Compositions” (Aquila Black Limited, priority 2021, published 2026).

Test: Stability of cannabinoid compounds and Vitamin E components in Beverage 1 (AB White) by LCMSMS
Assay type: physicochemical
Details: for Stability of Plant-Derived Cannabinoid Compounds in AB White, 8° C.: AB White stored at 8° C.; for Stability of Plant-Derived Cannabinoid Compounds in AB White, 21-25° C.: AB White stored at 21-25° C.

## CCCCCc1cc(O)c2c(c1)OC(C)(C)c1ccc(C)cc1-2 [CBN, cannabinol]
29 days
  Stability of Plant-Derived Cannabinoid Compounds in AB White, 8° C.: 2.76 µg/mL
  Stability of Plant-Derived Cannabinoid Compounds in AB White, 21-25° C.: 2.75 µg/mL
30 days
  Stability of Plant-Derived Cannabinoid Compounds in AB White, 8° C.: 2.78 µg/mL
  Stability of Plant-Derived Cannabinoid Compounds in AB White, 21-25° C.: 2.72 µg/mL
60 days
  Stability of Plant-Derived Cannabinoid Compounds in AB White, 8° C.: 2.68 µg/mL
  Stability of Plant-Derived Cannabinoid Compounds in AB White, 21-25° C.: 2.63 µg/mL
90 days
  Stability of Plant-Derived Cannabinoid Compounds in AB White, 8° C.: 2.74 µg/mL
  Stability of Plant-Derived Cannabinoid Compounds in AB White, 21-25° C.: 2.66 µg/mL
120 days
  Stability of Plant-Derived Cannabinoid Compounds in AB White, 8° C.: 2.72 µg/mL
  Stability of Plant-Derived Cannabinoid Compounds in AB White, 21-25° C.: 2.67 µg/mL
150 days
  Stability of Plant-Derived Cannabinoid Compounds in AB White, 8° C.: 2.69 µg/mL
  Stability of Plant-Derived Cannabinoid Compounds in AB White, 21-25° C.: 2.77 µg/mL
180 days
  Stability of Plant-Derived Cannabinoid Compounds in AB White, 8° C.: 2.77 µg/mL
  Stability of Plant-Derived Cannabinoid Compounds in AB White, 21-25° C.: 2.68 µg/mL
210 days
  Stability of Plant-Derived Cannabinoid Compounds in AB White, 8° C.: 2.75 µg/mL
  Stability of Plant-Derived Cannabinoid Compounds in AB White, 21-25° C.: 2.74 µg/mL
240 days
  Stability of Plant-Derived Cannabinoid Compounds in AB White, 8° C.: 2.70 µg/mL
  Stability of Plant-Derived Cannabinoid Compounds in AB White, 21-25° C.: 2.71 µg/mL
270 days
  Stability of Plant-Derived Cannabinoid Compounds in AB White, 8° C.: 2.75 µg/mL
  Stability of Plant-Derived Cannabinoid Compounds in AB White, 21-25° C.: 2.67 µg/mL
300 days
  Stability of Plant-Derived Cannabinoid Compounds in AB White, 8° C.: 2.71 µg/mL
  Stability of Plant-Derived Cannabinoid Compounds in AB White, 21-25° C.: 2.73 µg/mL
330 days
  Stability of Plant-Derived Cannabinoid Compounds in AB White, 8° C.: 2.75 µg/mL
  Stability of Plant-Derived Cannabinoid Compounds in AB White, 21-25° C.: 2.75 µg/mL
360 days
  Stability of Plant-Derived Cannabinoid Compounds in AB White, 8° C.: 2.68 µg/mL
  Stability of Plant-Derived Cannabinoid Compounds in AB White, 21-25° C.: 2.67 µg/mL
390 days
  Stability of Plant-Derived Cannabinoid Compounds in AB White, 8° C.: 2.67 µg/mL
  Stability of Plant-Derived Cannabinoid Compounds in AB White, 21-25° C.: 2.66 µg/mL
420 days
  Stability of Plant-Derived Cannabinoid Compounds in AB White, 8° C.: 2.70 µg/mL
  Stability of Plant-Derived Cannabinoid Compounds in AB White, 21-25° C.: 2.62 µg/mL
450 days
  Stability of Plant-Derived Cannabinoid Compounds in AB White, 8° C.: 2.70 µg/mL
  Stability of Plant-Derived Cannabinoid Compounds in AB White, 21-25° C.: 2.61 µg/mL
480 days
  Stability of Plant-Derived Cannabinoid Compounds in AB White, 8° C.: 2.66 µg/mL
  Stability of Plant-Derived Cannabinoid Compounds in AB White, 21-25° C.: 2.57 µg/mL
510 days
  Stability of Plant-Derived Cannabinoid Compounds in AB White, 8° C.: 2.60 µg/mL
  Stability of Plant-Derived Cannabinoid Compounds in AB White, 21-25° C.: 2.66 µg/mL
540 days
  Stability of Plant-Derived Cannabinoid Compounds in AB White, 8° C.: 2.56 µg/mL
  Stability of Plant-Derived Cannabinoid Compounds in AB White, 21-25° C.: 2.63 µg/mL
570 days
  Stability of Plant-Derived Cannabinoid Compounds in AB White, 8° C.: 2.56 µg/mL
  Stability of Plant-Derived Cannabinoid Compounds in AB White, 21-25° C.: 2.56 µg/mL
0 days
  Stability of Plant-Derived Cannabinoid Compounds in AB White, 21-25° C.: 2.79 µg/mL
1 days
  Stability of Plant-Derived Cannabinoid Compounds in AB White, 21-25° C.: 2.79 µg/mL
2 days
  Stability of Plant-Derived Cannabinoid Compounds in AB White, 21-25° C.: 2.81 µg/mL
3 days
  Stability of Plant-Derived Cannabinoid Compounds in AB White, 21-25° C.: 2.73 µg/mL
5 days
  Stability of Plant-Derived Cannabinoid Compounds in AB White, 21-25° C.: 2.80 µg/mL
8 days
  Stability of Plant-Derived Cannabinoid Compounds in AB White, 21-25° C.: 2.71 µg/mL
9 days
  Stability of Plant-Derived Cannabinoid Compounds in AB White, 21-25° C.: 2.78 µg/mL
10 days
  Stability of Plant-Derived Cannabinoid Compounds in AB White, 21-25° C.: 2.77 µg/mL
11 days
  Stability of Plant-Derived Cannabinoid Compounds in AB White, 21-25° C.: 2.80 µg/mL
12 days
  Stability of Plant-Derived Cannabinoid Compounds in AB White, 21-25° C.: 2.75 µg/mL
15 days
  Stability of Plant-Derived Cannabinoid Compounds in AB White, 21-25° C.: 2.81 µg/mL
16 days
  Stability of Plant-Derived Cannabinoid Compounds in AB White, 21-25° C.: 2.75 µg/mL
17 days
  Stability of Plant-Derived Cannabinoid Compounds in AB White, 21-25° C.: 2.70 µg/mL
18 days
  Stability of Plant-Derived Cannabinoid Compounds in AB White, 21-25° C.: 2.78 µg/mL
19 days
  Stability of Plant-Derived Cannabinoid Compounds in AB White, 21-25° C.: 2.73 µg/mL
22 days
  Stability of Plant-Derived Cannabinoid Compounds in AB White, 21-25° C.: 2.69 µg/mL
23 days
  Stability of Plant-Derived Cannabinoid Compounds in AB White, 21-25° C.: 2.68 µg/mL
24 days
  Stability of Plant-Derived Cannabinoid Compounds in AB White, 21-25° C.: 2.79 µg/mL
25 days
  Stability of Plant-Derived Cannabinoid Compounds in AB White, 21-25° C.: 2.75 µg/mL
26 days
  Stability of Plant-Derived Cannabinoid Compounds in AB White, 21-25° C.: 2.69 µg/mL
